The values below come from patent US20220273659A1, “HETEROCYCLIC COMPOUNDS AS KINASE INHIBITORS” (NUVATION BIO INC., priority 2019, published 2022).

Experiment [1] concerns DU4475 breast carcinoma cells. In words: Cancer cell proliferation assay, single agent (cell viability). The class given is cell-based. Conditions: Homo sapiens, DU-4475; Table 4; Rb negative; treatment 144 Hr with medium change at 72 Hr; Cell Titer-Glo or resazurin. An outline of the steps: (§1)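 Viability read by resazurin or CellTiter-Glo after 24 h treatment (BT-549) or 144 h with a 72 h medium change (MCF-7, DU4475). Compounds tested at 7–9 concentrations, e.g. 1.1 nM–10 μM, added the day after seeding; IC50 by nonlinear sigmoidal regression.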

Experiment [2] relates to MCF-7 breast adenocarcinoma cells. The experiment is described as above. It counts as cell-based. The settings on record: Homo sapiens, MCF7, Table 4; Rb positive; treatment 144 Hr with medium change at 72 Hr; Cell Titer-Glo or resazurin. An outline of the steps:
as §1
On the technique in general: Cellular ATP, detected with luciferase, serves as a proxy for viable cell number.

In another experiment the target is T1, CDK2 (cyclin A) (Homo sapiens, UniProt P24941).
T1 construct: purchased Invitrogen Life Technologies (assay service)
Nature of the experiment: Z'-LYTE kinase assay. It counts as biochemical. As to the method:
IC50 values of compounds against CDK2 (cyclin A) were determined by Z′-LYTE™ These screening assays were performed at Invitrogen Life Technologies (Grand Island, N.Y.) on a low volume NBS, black 384-well plate (#4514, Corning). 0.1 μL of 100×test compound in 100% DMSO (at specific solutions) was mixed with 2.4 μL of Kinase Buffer (50 mM HEPES pH 7.5, 0.01% BRIJ-35, 10 mM MgCl2, 1 mM EGTA), 5 μL of 2× Kinase (1.22-10.3 ng CDK2/cyclin A)/Peptide (2 μM Ser/Thr 12), and 2.5 μL of 4×ATP solution (31 μM). The plates were shaken for 30 seconds, and incubated for 60 minutes at room temperature. Development Reagent Solution (5 μL of 1:1024 dilution) was added to the plates followed with another 30-second plate shake and the plates were further incubated at room temperature for one hour. The plates were read on fluorescence plate reader with Dual emission at 445 nm and 520 nm.
The following equations were used for Z′-LYTE™ Screening Assay Data Analysis. Percent inhibition (100-% activity) was fitted to the “four-parameter logistic model” in XLfit for determination of IC50 values.

The target of another experiment is T2, CDK1 (cyclin B) (Homo sapiens, UniProt P06493).
T2 construct: purchased Invitrogen Life Technologies (assay service)
T2 sequence (P06493 whole entry): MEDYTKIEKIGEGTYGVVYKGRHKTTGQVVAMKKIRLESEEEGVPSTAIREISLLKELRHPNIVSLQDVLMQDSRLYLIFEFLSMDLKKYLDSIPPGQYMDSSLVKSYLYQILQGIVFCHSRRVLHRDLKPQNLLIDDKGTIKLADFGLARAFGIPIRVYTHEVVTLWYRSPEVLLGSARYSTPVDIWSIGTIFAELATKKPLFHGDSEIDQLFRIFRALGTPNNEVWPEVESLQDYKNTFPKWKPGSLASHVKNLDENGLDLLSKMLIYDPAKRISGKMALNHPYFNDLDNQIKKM
T2 sequence (P14635 whole entry partner): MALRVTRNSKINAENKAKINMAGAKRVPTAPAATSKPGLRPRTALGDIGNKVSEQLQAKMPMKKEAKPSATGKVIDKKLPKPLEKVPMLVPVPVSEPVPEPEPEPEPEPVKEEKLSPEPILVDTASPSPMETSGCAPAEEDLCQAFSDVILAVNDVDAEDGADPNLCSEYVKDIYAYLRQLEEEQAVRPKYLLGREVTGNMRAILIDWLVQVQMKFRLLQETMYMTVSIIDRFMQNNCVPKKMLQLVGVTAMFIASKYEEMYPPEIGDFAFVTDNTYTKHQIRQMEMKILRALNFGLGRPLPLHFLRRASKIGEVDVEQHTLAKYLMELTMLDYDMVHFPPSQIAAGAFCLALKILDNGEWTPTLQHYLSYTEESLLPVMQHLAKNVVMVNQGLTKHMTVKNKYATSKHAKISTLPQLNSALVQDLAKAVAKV
In words: Z'-LYTE kinase assay. The class given is biochemical. As to the method: The plates were shaken for 30 seconds, and incubated for 60 minutes at room temperature. […] The plates were read on fluorescence plate reader with Dual emission at 445 nm and 520 nm.
The following equations were used for Z′-LYTE™ Screening Assay Data Analysis.

The target of a further experiment is T3, CDK6 (Homo sapiens, UniProt Q00534).
T3 construct: purchased Invitrogen PR8422B
T3 sequence (Q00534 whole entry): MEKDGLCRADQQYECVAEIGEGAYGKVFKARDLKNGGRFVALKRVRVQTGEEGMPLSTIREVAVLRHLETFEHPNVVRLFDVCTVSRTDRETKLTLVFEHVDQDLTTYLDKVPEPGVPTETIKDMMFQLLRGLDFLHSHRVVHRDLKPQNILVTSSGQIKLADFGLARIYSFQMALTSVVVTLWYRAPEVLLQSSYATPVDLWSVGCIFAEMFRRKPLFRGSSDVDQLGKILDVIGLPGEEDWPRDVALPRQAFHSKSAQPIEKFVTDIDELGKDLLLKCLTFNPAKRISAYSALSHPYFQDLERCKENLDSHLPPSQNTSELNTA
T3 sequence (P24385 whole entry partner): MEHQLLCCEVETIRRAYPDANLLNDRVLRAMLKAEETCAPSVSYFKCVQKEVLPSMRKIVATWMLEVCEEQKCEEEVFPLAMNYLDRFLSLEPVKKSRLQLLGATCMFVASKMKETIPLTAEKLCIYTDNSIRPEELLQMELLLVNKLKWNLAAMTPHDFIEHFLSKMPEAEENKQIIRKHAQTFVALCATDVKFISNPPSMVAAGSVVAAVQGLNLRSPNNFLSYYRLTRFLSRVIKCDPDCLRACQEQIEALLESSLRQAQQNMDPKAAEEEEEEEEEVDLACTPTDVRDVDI
In words: In vitro kinase inhibition IC50, luminescence (ADP Glo), retinoblastoma substrate. The class given is biochemical. The settings on record: read-out: CDK6/D1 IC50. An outline of the steps:
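IC50 derived by four-parameter logistic fit of percent inhibition, read as ADP-Glo luminescence. Reactions: 5 nM CDK6, 1 μM retinoblastoma, 25 μM ATP, test compound 0.1–200 nM final, 2 h at room temperature.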

A further experiment deals with T4, CDK4 (Homo sapiens, UniProt P11802).
T4 construct: purchased Invitrogen PR8064A
T4 sequence (P11802 whole entry): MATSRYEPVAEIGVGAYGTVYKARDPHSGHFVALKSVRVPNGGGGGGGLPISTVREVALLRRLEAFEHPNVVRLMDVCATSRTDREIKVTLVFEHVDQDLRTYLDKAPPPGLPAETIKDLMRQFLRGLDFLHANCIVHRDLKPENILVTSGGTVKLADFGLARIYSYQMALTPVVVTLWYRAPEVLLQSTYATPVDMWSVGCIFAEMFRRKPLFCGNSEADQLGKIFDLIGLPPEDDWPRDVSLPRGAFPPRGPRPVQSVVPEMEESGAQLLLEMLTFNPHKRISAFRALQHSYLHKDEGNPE
T4 sequence (P24385 whole entry partner): as the sequence (P24385 whole entry partner) above
Described as above. The class given is biochemical. The settings on record: read-out: CDK4/D1 IC50. An outline of the steps: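 Inhibition of CDK4 was quantified by ADP Glo luminescence with retinoblastoma as substrate. Reactions held 5 nM kinase, 1 μM retinoblastoma and 25 μM ATP and ran 2H at room temperature. A Synergy Neo reader took signals 15 min and 45 min after detection reagent, and percent inhibition was fitted to a four-parameter logistic model in XLfit to obtain IC50.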

For a further experiment, the target named is T5, PI3Kδ kinase (Homo sapiens, UniProt O00329).
T5 construct: purchased Reaction Biology Corporation (assay service)
T5 sequence (O00329 whole entry): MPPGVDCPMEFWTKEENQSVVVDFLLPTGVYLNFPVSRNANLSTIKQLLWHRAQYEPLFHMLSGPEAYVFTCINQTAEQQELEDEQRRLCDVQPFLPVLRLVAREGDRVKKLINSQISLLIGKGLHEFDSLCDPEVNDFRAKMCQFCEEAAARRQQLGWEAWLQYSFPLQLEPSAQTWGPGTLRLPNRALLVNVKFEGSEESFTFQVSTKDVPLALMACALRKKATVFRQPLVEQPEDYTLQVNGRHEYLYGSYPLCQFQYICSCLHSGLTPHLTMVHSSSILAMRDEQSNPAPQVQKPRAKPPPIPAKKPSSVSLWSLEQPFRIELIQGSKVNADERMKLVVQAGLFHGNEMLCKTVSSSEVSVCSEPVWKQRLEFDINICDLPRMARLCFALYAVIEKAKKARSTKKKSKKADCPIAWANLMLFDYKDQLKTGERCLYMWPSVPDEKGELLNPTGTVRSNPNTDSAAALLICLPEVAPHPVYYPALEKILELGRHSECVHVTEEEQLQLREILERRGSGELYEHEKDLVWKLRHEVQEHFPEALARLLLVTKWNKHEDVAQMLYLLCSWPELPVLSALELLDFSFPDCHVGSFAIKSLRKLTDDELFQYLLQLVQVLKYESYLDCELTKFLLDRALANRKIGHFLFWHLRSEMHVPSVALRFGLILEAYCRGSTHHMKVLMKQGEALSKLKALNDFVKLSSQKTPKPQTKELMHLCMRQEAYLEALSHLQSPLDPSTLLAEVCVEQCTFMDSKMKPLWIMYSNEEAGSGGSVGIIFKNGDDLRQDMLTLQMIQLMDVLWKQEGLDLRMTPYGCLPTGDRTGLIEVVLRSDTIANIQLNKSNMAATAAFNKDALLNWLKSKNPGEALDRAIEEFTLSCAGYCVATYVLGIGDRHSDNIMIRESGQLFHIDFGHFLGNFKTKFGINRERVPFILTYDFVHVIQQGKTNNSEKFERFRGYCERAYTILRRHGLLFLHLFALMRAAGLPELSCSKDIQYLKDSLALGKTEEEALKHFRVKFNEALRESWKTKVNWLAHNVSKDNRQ
T5 sequence (P27986 whole entry partner): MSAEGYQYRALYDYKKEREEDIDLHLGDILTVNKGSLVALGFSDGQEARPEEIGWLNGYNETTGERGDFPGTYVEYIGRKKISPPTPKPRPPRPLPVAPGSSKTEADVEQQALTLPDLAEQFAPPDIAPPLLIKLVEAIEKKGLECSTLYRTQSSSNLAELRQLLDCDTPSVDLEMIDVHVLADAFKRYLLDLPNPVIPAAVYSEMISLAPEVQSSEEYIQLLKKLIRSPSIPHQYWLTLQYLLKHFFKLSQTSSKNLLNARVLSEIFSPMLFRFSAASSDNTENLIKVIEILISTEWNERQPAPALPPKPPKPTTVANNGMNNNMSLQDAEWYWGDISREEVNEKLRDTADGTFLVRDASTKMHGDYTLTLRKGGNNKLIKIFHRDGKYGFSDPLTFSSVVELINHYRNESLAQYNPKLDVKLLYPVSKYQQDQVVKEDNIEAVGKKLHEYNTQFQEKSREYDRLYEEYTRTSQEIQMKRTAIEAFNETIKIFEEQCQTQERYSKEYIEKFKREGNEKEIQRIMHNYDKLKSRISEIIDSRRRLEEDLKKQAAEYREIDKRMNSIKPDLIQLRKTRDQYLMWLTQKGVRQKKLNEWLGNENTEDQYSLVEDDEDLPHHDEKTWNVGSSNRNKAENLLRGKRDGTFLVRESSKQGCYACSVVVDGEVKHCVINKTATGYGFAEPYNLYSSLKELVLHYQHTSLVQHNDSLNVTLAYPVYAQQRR
Nature of the experiment: PI3Kδ kinase assay (ADP-Glo, Reaction Biology). It counts as biochemical. An outline of the steps: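 Kinase in Tris-HCl 40 mM pH 7.5, MgCl2 20 mM, orthovanadate 3 mM, DTT 2 mM, 0.05% CHAPS, 1% DMSO, preincubated 10 min at room temperature with compound (about 0.5 nM–100 μM). ATP started a 30-min reaction at 30 °C. ADP-Glo luminescence converted to μM ADP via standard curve; IC50 from nonlinear regression.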

Another experiment concerns the target T6, FMS kinase (Homo sapiens, UniProt P07333).
T6 construct: purchased Invitrogen (Life Technologies)
Nature of the experiment: LanthaScreen Eu Kinase Binding Assay (ATP, fluorescent-PolyGT substrate). The class given is biochemical. An outline of the steps:
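TR-FRET read (ex 340, em 495 and 520 nm) after EDTA/Tb-labelled antibody stop; IC50 by four-parameter logistic fit of percent inhibition. Reaction: 1.25 nM FMS, 10 min compound preincubation (3-fold series), then 1 h at room temperature with 10 μM ATP and 200 nM fluorescent PolyGT.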
(In general: In TR-FRET formats the signal depends on donor and acceptor labels being close together.)

Where two headings read alike, the source gives them in different places.

T6 sequence (P07333 20-972): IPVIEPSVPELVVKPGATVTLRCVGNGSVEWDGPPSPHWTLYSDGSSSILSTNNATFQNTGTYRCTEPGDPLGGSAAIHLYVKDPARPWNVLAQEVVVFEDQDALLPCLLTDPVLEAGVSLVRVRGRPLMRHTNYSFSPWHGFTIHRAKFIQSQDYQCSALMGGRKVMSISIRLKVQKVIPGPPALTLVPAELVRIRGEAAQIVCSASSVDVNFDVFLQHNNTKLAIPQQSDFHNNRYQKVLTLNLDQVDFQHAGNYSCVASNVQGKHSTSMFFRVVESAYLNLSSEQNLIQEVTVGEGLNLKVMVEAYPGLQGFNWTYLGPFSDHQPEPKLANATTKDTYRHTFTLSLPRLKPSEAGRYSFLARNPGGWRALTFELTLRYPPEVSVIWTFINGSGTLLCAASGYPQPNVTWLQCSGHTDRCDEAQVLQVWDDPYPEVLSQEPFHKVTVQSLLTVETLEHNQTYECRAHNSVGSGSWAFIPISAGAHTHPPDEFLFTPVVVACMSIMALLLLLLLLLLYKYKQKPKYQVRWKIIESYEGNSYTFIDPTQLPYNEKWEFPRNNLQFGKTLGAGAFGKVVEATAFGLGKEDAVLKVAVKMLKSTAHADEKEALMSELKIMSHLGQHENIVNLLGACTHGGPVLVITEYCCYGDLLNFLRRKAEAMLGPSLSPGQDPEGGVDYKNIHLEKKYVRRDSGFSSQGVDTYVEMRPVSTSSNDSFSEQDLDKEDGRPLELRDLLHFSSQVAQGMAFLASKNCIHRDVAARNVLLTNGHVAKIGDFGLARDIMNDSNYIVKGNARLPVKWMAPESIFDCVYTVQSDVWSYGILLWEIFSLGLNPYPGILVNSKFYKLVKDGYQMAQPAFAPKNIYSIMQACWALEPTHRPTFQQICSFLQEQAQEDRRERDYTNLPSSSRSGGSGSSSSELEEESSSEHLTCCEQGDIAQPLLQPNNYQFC

Take `CS(=O)(=O)N1CCC(Nc2cc3c(cn2)cc(C#N)c(=O)n3C2CCCC2)CC1` [Compound No. 303, 1-cyclopentyl-7-((1-(methylsulfonyl)piperidin-4-yl)amino)-2-oxo-1,2-dihydro-1,6-naphthyridine-3-carbonitrile]: the IC50 in experiment [1] turned out to be 710 nM; in experiment [2] it was 660 nM; at CDK2 (cyclin A) it was 4.5 nM; on CDK1 (cyclin B) (read-out: CDK1/B IC50), 97 nM; on CDK6, 3 nM; at CDK4 it was 3 nM.

With `Cn1ccc(S(=O)(=O)N2CCC(Nc3ncc4cc(C(F)F)c(=O)n([C@@H]5C[C@H]6CC[C@@H]5C6)c4n3)CC2)n1` [Compound 396, 8-((1R,2R,4S)-bicyclo[2.2.1]heptan-2-yl)-6-(difluoromethyl)-2-((1-((1-methyl-1H-pyrazol-3-yl)sulfonyl)piperidin-4-yl)amino)pyrido[2,3-d]pyrimidin-7(8H)-one], the IC50 on CDK2 (cyclin A) was 14 nM; against CDK1 (cyclin B), 100 nM; on CDK6, 7 nM; at CDK4, 17 nM.

As for `Cn1ccc(S(=O)(=O)N2CCC(Nc3ncc4cc(C(F)F)c(=O)n([C@H]5C[C@@H]6CC[C@H]5C6)c4n3)CC2)n1` [Compound 395, 8-((1S,2S,4R)-bicyclo[2.2.1]heptan-2-yl)-6-(difluoromethyl)-2-((1-((1-methyl-1H-pyrazol-3-yl)sulfonyl)piperidin-4-yl)amino)pyrido[2,3-d]pyrimidin-7(8H)-one], the IC50 on CDK2 (cyclin A) is 18 nM; against CDK1 (cyclin B), 66 nM; at CDK6 it was 11 nM; at CDK4, 13 nM.

For the compound `CS(=O)(=O)N1CCC(Nc2ncc3cc(C(F)F)c(=O)n([C@H]4C[C@H]5C[C@H]5C4)c3n2)CC1` [Compound 196, 8-((1R,3R,5S)-bicyclo[3.1.0]hexan-3-yl)-6-(difluoromethyl)-2-((1-(methylsulfonyl)piperidin-4-yl)amino)pyrido[2,3-d]pyrimidin-7(8H)-one], the IC50 against CDK2 (cyclin A) is 5 nM; against CDK1 (cyclin B), 31 nM; at CDK6, 4.5 nM; on CDK4 it was 2.5 nM.

On to `N#Cc1cc2cnc(Nc3ccc4c(c3)CN(CCN)CC4)nc2n(C2CCCC2)c1=O` [Compound No. 65, 2-((2-(2-aminoethyl)-1,2,3,4-tetrahydroisoquinolin-7-yl)amino)-8-cyclopentyl-7-oxo-7,8-dihydropyrido[2,3-d]pyrimidine-6-carbonitrile], for which the IC50 turned out to be 1990 nM in experiment [1]; 569 nM in experiment [2]; 169 nM on CDK2 (cyclin A); 791 nM at CDK1 (cyclin B) (read-out: CDK1/B IC50); 15 nM at CDK6; 17 nM at CDK4.

Consider `CS(=O)(=O)N1CCC(Nc2ncc3cc(C(F)F)c(=O)n(C4CC5CCC4C5)c3n2)CC1` (racemic) [Compound 401, 8-((1S,2S,4R)-bicyclo[2.2.1]heptan-2-yl)-6-(difluoromethyl)-2-((1-(methylsulfonyl)piperidin-4-yl)amino)pyrido[2,3-d]pyrimidin-7(8H)-one], for which the IC50 was 19 nM on CDK2 (cyclin A), 88 nM on CDK1 (cyclin B) (read-out: CDK1/B IC50), 4.5 nM at CDK6 and 4 nM on CDK4.

`CN(C)CCn1cc(Nc2ncc3cc(C#N)c(=O)n(C4CCCC4)c3n2)cn1` [Compound No. 105, 8-cyclopentyl-2-((1-(2-(dimethylamino)ethyl)-1H-pyrazol-4-yl)amino)-7-oxo-7,8-dihydropyrido[2,3-d]pyrimidine-6-carbonitrile]: the IC50 was 3820 nM in experiment [1]; 675 nM in experiment [2]; 456 nM against PI3Kδ kinase; greater than 3400 nM at CDK1 (cyclin B) (read-out: CDK1/B IC50); 34 nM at CDK6; 69 nM on CDK4.

For `CN(C)CCN1CCc2cc(Nc3ncc4cc(C#N)c(=O)n(C5CCCC5)c4n3)ccc2C1` [Compound No. 63, 8-cyclopentyl-2-((2-(2-(dimethylamino)ethyl)-1,2,3,4-tetrahydroisoquinolin-6-yl)amino)-7-oxo-7,8-dihydropyrido[2,3-d]pyrimidine-6-carbonitrile], the IC50 in experiment [1] turned out to be 1440 nM; in experiment [2] it was 266 nM; against CDK2 (cyclin A) it was 190 nM; on CDK1 (cyclin B) (read-out: CDK1/B IC50), 655 nM; on CDK6, 4 nM; on CDK4, 11 nM.

Consider `CN(C)CC(=O)N1CCC(n2cc(Nc3ncc4cc(C#N)c(=O)n(C5CCCC5)c4n3)cn2)CC1` [Compound No. 202, 8-cyclopentyl-2-((1-(1-(dimethylglycyl)piperidin-4-yl)-1H-pyrazol-4-yl)amino)-7-oxo-7,8-dihydropyrido[2,3-d]pyrimidine-6-carbonitrile], for which the IC50 in experiment [1] is 3760 nM; in experiment [2], 830 nM; against CDK2 (cyclin A), 154 nM; at PI3Kδ kinase, 39 nM; on CDK6 it was 26 nM; on CDK4, 58 nM.

On to `COCCn1cc(Nc2ncc3cc(C#N)c(=O)n(C4CCCC4)c3n2)cn1` [Compound No. 104, 8-cyclopentyl-2-((1-(2-methoxyethyl)-1H-pyrazol-4-yl)amino)-7-oxo-7,8-dihydropyrido [2,3-d] pyrimidine-6-carbonitrile], for which the IC50 was 2520 nM in experiment [1]; 1040 nM in experiment [2]; 140 nM against CDK2 (cyclin A); 75 nM at PI3Kδ kinase; 56 nM at CDK6; greater than 180 nM at CDK4.

With `CN1CCC(n2cc(Nc3ncc4cc(C#N)c(=O)n(C5CCCC5)c4n3)cn2)CC1` [Compound No. 325, 8-cyclopentyl-2-((1-(1-methylpiperidin-4-yl)-1H-pyrazol-4-yl)amino)-7-oxo-7,8-dihydropyrido [2,3-d] pyrimidine-6-carbonitrile], the IC50 amounted to 2420 nM in experiment [1]; 445 nM in experiment [2]; 382 nM against CDK2 (cyclin A); 22 nM at PI3Kδ kinase; 36 nM on CDK6; 70 nM at CDK4.

Turning to `N#Cc1cc2cnc(Nc3nc(C4CCNCC4)cs3)nc2n(C2CCCC2)c1=O` [Compound No. 327, 8-cyclopentyl-7-oxo-2-((4-(piperidin-4-yl)thiazol-2-yl)amino)-7,8-dihydropyrido [2,3-d] pyrimidine-6-carbonitrile], the IC50 in experiment [1] was 1700 nM; in experiment [2] it was 650 nM; against PI3Kδ kinase it was 5690 nM; on CDK1 (cyclin B) (read-out: CDK1/B IC50), greater than 5000 nM; at CDK6, 9 nM; on CDK4, 26 nM.

Consider `N#Cc1cc2cnc(Nc3ccc(C4CCNCC4)cc3)nc2n(C2CCCC2)c1=O` [Compound No. 37, 8-cyclopentyl-7-oxo-2-((4-(piperidin-4-yl)phenyl)amino)-7,8-dihydropyrido[2,3-d]pyrimidine-6-carbonitrile], for which the IC50 was 5.8 nM on FMS kinase; 2220 nM in experiment [1]; 353 nM in experiment [2]; 64 nM on PI3Kδ kinase; 2.5 nM on CDK6; 6.5 nM at CDK4.
